From patent publication US20070155827A1, “USE OF BENZO-FUSED HETEROCYCLE SULFAMIDE DERIVATIVES FOR THE TREATMENT OF DEPRESSION” (priority 2005, published 2007) come the findings set out here.

Like-named read-outs stand apart in the source and are kept apart here.

One test has as its system Male Sprague Dawley rats. Put plainly: Forced Swim Test (Acute), FST. Type of test: in vivo. The protocol: The Forced Swim test (FST) is a commonly used procedure to screen compounds for possible antidepressant properties. This test is also known as the behavioral despair test. Rodents placed in […] tanks filled with water present a wide variety of escape or immobility behaviors. Antidepressant drugs from different classes markedly increase escape behaviors and/or decrease latency or duration of immobility.
Venlafaxine and desipramine were dissolved in water. All drugs and their vehicles were administered orally (p.o.) by gavage in a volume of 5 mL/kg.
Male Sprague Dawley rats (140 to 160 g) from Charles River Laboratories Wilmington, Mass. were used. The animals went through a five-day quarantine period before being subjected to the experimental procedure.
Animals were housed in groups of four in plastic cages at an ambient temperature of 21° C. to 23° C. with an automated 12 hour light/dark cycle and access to water and commercial rodent food ad libitum. Animals were not handled more than for the routine bedding change prior to pre-test swim session.
Each experiment consisted of seven treatment groups with n=4 animals per group. A total of 28 animals per experiment were used. Two consecutive experiments (1 and 2, 3 and 4, and 5 and 6) were exact replicas of each other. […] One treatment group of n=4 animals in each experiment was a vehicle treated group. […] In experiments 5 and 6 the effects of venlafaxine and maprotyline at 12 mg/kg, 30 mg/kg, and 60 mg/kg were tested.
The basic apparatus consisted of a cylinder (46 cm tall×˜20 cm diameter) filled with water to 30 cm deep, at a temperature of 25±1° C. The automated version of the FST was used to perform the experiments. Plumbing for automatic filling and emptying water connected the four cylinders. Cylinders were placed in the dividing chambers 25 cm wide to separate animals visually. Each 5-minute experimental session was videotaped and analyzed in real time by computer software (Clever Systems, Inc.) for four animals at a time. The immobility, swimming, climbing and escape times were recorded by the software. The four activities are defined as follow. Immobility: the animal floats motionlessly or makes only those movements necessary to keep its head above water; Climb: the animal vigorously moves vertically while scratching the wall around the cylinder; Swim: the animal moves horizontally around in the cylinder more than necessary to keep its head above water; and Escape: sum of all vigorous active movements.
The ability of a test compound to decrease the duration or frequency of immobility, or changes in swimming, climbing and escape times, was measured using the FST procedure described above. […] The analysis of the results in the studies described was focused on the immobility time during 5-minute test session.
There were two swim sessions in each experiment. First, a pre-test swim session for 15 minutes was performed. Following 48 hours later was a test session of 5-minute duration. Upon completion of a swim session, each animal was placed under a heat lamp in a cage with soft bedding for approximately 15 minutes to prevent hypothermia.
Animals were pre-treated with a vehicle or test compound after completing the pre-test swim session, then 24 hours later and then shortly prior to the 5-minute test session; i.e., three injections were given to each animal between the two swim sessions that occurred on 3 consecutive days.
Data were analyzed using GraphPad Prism software (GraphPad Software, Inc. San Diego, Calif.). For the comparison of the effect of different doses for various drugs on immobility in the FST one-way ANOVA was used followed by Dunnett's multiple comparison test. […] The ED50 and Emax values were statistically compared using two-tail t-test.

The next test relates to CH3/HeJ mice. Kind of test: Mouse Tail Suspension Assay (Acute), TST. The following applies: Mus musculus, po, 7 min, p.o., 7-min session. Format: in vivo. The procedure: In the tail suspension test (TST) for evaluating compounds for anti-depressant activity, mice are suspended by their tails to a metal or plastic rod using clip or scotch tape. The test is usually quite short, 5-7 min, and the amount of time the mice spend immobile is recorded either manually or with an automated device. Agents which have antidepressant activity, decrease the duration of immobility of mice in this test.
The basic apparatus for the tail suspension assay consisted of a yellow plastic chamber (91×45×10 cm) divided for four arenas 25, 20, 20 and 25 cm wide separated by yellow plastic walls 0.75 cm thick. Mice were suspended by their tails using a rubber clip (7 cm long) attached to the plastic rod that was placed on the top of a testing chamber half way through its deep dimension. Each experimental session was videotaped and analyzed for four animals in the real time by computer software (“Depression Scan” Clever Sys Inc.). The computer justification of immobility was calibrated with the use of animals dosed with lorazepam while justification of movement was calibrated with the high dose of desipramine treated animals. Control, vehicle treated animals and animals treated with Compound #8 were analyzed under the calibrated settings. The settings were adjusted separately for dark (CH3/HeJ and C57Bl/6J strains) and white mice (Balb/cJ and A/J strains). A yellow background was used for dark mice and a blue background was used to record movements of white mice.
The ability of a test compound to decrease the duration of immobility, or increase mobility was measured using the TST procedure described above. Acute treatment with clinically effective antidepressants and/or novel compounds that have potential antidepressant properties decrease the duration of immobility and at the same time increases mobility in the TST.
Data were analyzed using GraphPad Prism software (GraphPad Software, Inc. San Diego, Calif.). For the comparison of the effect of different doses for various drugs on immobility in the TST one-way analyses of variance (ANOVA) were used followed by Dunnett's multiple comparison test. […] The ED50 and Emax values were compared using two-way ANOVA and Bonferroni post-hoc test.
Positive controls included duloxetine (DLX), venlafaxine (VLX)and desipramine (DMI) which were dissolved in 0.5% methylcellulose and lorazepam (LOR) which was suspended in 0.5% of methylcellulose in water by sonication. All drugs and vehicles were administered orally (p.o.) by gavage in a volume of 10 mL/kg.
The mice were ordered 5 weeks old and at the beginning of experiment their weight was 20±5 g. Animals were housed in groups of four in plastic cages at an ambient temperature of 21° C. to 23° C. with an automated 12/12 hours light/dark cycle and access to water and a commercial rodent food ad libitum.
Each experiment consisted of seven treatment groups with four animals per group. A total of 28 animals per experiment were used. Every two consecutive experiments (1 & 2, 3 & 4, 5 & 6 and 7 & 8) were exact replicas of each other. […] One treatment group of four animals in each experiment was a vehicle treated group. In addition to the vehicle treated group, the effects of DMI at 6 mg/kg, 12 mg/kg, 30 mg/kg, 60 mg/kg and 120 mg/kg and LOR at 5 mg/kg were tested in experiments 1 and 2. […] In experiments 5 and 6 the effects of DLX at 6 mg/kg, 12 mg/kg, 30 mg/kg, 60 mg/kg, 120 mg/kg and LOR at 5 mg/kg were tested. […]

In another test the test system is Male Wistar rats. Kind of test: Chronic Mild Stress Model (Chronic), sucrose consumption. The following applies: stressed animals, once daily i.p. Format: in vivo. The source says:
In the chronic mild stress (CMS) model rats subjected to a variety of mild stressors for a prolonged period of time show, among other behavioural, biochemical and physiological impairments, a substantial decrease in their responsiveness to rewarding stimuli. This deficit is usually monitored by a decrease in the consumption of the 1% sucrose solution, but can also be seen in other tests, such as place preference conditioning or intracranial self-stimulation. Since the subsensitivity to reward appears to reflect anhedonia (inability to experience pleasure), which is a core symptom of major depressive disorders, the CMS procedure may serve as a suitable research tool in studies into the mechanisms of antidepressant action.
Male Wistar rats were brought into the laboratory two months before the start of the experiment. Except as described below, the animals were singly housed with food and water freely available, and were maintained on a 12-h light/dark and in a constant temperature (22±2° C.) and humidity (50±5%) conditions.
The animals were first trained to consume a 1% sucrose solution; training consisted of eight 1 h baseline tests in which sucrose was presented, in the home cage, following 14 h food and water deprivation; the sucrose intake was measured by weighing pre-weighed bottles containing the sucrose solution, at the end of the test. Subsequently, sucrose consumption was monitored, under similar conditions, at weekly intervals throughout the whole experiment.
On the basis of their sucrose intakes in the final baseline test, the animals were divided into two matched groups. One group of animals was subjected to the chronic mild stress procedure for a period of 7 consecutive weeks. Each week of stress regime consisted of: two periods of food or water deprivation, two periods of 45 degree cage tilt, two periods of intermittent illumination (lights on and off every 2 h), two periods of soiled cage (250 ml water in sawdust bedding), one period of paired housing, two periods of low intensity stroboscopic illumination (150 flashes/min), and three periods of no stress. All stressors were 10-14 h of duration and were applied individually and continuously, day and night. Control animals were housed in separate rooms and had no contact with the stressed animals. They were deprived of food and water for the 14 h preceding each sucrose test, but otherwise food and water were freely available in the home cage.
The drugs were administered at approx. 10.00 and the weekly sucrose tests were carried out 24 h following the last drug injections. […]
All results obtained in this study were analyzed by multiple analyses of variance with three between-subjects factors (stress/control, drug treatments and successive sucrose tests). […]

Test [1] has as its system stressed and non-stressed animals. Kind of test: Resident/Intruder Assay (Chronic Social Stress Assay). Type of test: in vivo. The following applies: Forced Swim Test, 10 mg/kg p.o. The text has this:
The behavioral resident/intruder assay is used to screen compounds for anti-depressant-like activity.

The next test concerns submissive rats. Put plainly: Dominant-Submissive Relations (DSR) assay: Reduction of Submissive Behavior Model (RSBM) of depression. Format: in vivo, Male Sprague Dawley rats. The following applies: 10.0 mg/kg i.p. The protocol:
The DSR assay is divided into two models: Reduction of Dominant Behavior Model (RDBM) of mania and Reduction of Submissive Behavior Model (RSBM) of depression. The RDBM, wherein the dominant animals are treated with test compound, is predictive of the ability of the test compound to treat mania. The RSBM, wherein the submissive animals are treated with test compound, is predictive of the ability of the test compound to treat depression.
Male Sprague Dawley rats (140 to 160 g) from Charles River Laboratories Wilmington, Mass. were used in this assay. Shipments of rats were received at two-week intervals. Each shipment went through five-day quarantine, one-week acclimation period, and one-week selection process, followed by five-weeks of drug or vehicle treatment to those pairs selected.
Rats were housed four per cage. Access to food was restricted to one hour per day after testing on Monday through Thursday. After testing on Friday, rats had free access to food until being fasted again on Sunday. At no time were the rats deprived of water. The food deprivation periods used had little effect on weight gain as the average weight of rats was about 300 g at the end of the study. At the conclusion of experiment rats were sacrificed by decapitation, the trunk blood and brains were collected for in vitro experiments and drug concentration measurements.
The basic testing apparatus consisted of two chambers connected with a tunnel only large enough to allow one rat to pass through at a time. On the floor, at the mid-point of the tunnel was a container of sweetened milk. This basic apparatus was replicated, so that a total of four pairs of rats can be video tracked simultaneously. The camera can distinguish rats marked by different colors. Thus, the rats' heads were colored for the purpose of video tracking, red in one cage and yellow in the other cage. Only one animal at a time can have comfortable access to the feeder, but both animals can drink milk during the five-minute daily session. During the five-minute daily sessions, time spent in the feeder zone by each rat was recorded by the video tracking software and saved into a text file.
The test began with a random assignment of rats into pairs. Each member of a pair was placed in an opposite chamber of the testing apparatus. The time spent in the feeder zone by each animal was recorded. During the first week (five days) of testing the animals habituate to the new environment. Dominance was assigned to the animal with the highest score during the second week of testing if three criteria were achieved. First, there must have been a significant difference (two-tailed t-test, P<0.05) between the average daily drinking scores of both animals. Second, the dominant animal score must have been at least 25% greater than the submissive animal's score. Finally, there must have been no “reversals” during the pair selection week where the putative submissive rat out-scored its dominant partner on isolated occasions. Ideally there were minimal reversals during the acclimation week as well. About twenty-five to thirty-three percent of the initial animal pairs achieved these criteria and only these pairs were continued in the study.
Significant differences between time spent on the feeder by dominant and submissive rats were determined by ANOVA using GraphPad Prism software (GraphPad Software, Inc. San Diego, Calif.) followed by a two-tailed t-test (P<0.05). Comparisons were made between treatment groups using normalized dominance level values in paired animals. The dominance level is a value that measures social relation between paired subjects. Dominance level (DL)=FTD−FTS where FTD is the feeder time of dominant rats and FTS is the feeder time of submissive rats. The normalization was conducted according to the formula: Dominance Level (week n in %)=(Dominance Level (week n))/(Dominance Level (week 2) […]

For the molecule `CNCCCN1c2ccccc2CCc2ccccc21` [DMI, desipramine, reference compound], the 50% effective dose (ED50) in the test on Male Sprague Dawley rats (Rattus norvegicus, po, 5 min, p.o., three administrations, 5-minute test session, read-out: ED50 (immobility)) turned out to be 2 ± 0.1 mg/kg; with CH3/HeJ mice (read-out: Immobility ED50) it was 27.4 mg/kg; in the test on CH3/HeJ mice (read-out: Mobility ED50), 24.4 mg/kg. For the same molecule, the “Emax (immobility)” value with Male Sprague Dawley rats (p.o., immobility) was found to be 50.0 ± 8.4 s.

For `CN(C)CCCN1c2ccccc2CCc2ccccc21` [Imipramine, imipramine, reference compound], in the test on Male Wistar rats, the “treatment time until increase in sucrose intake reached statistical significance vs Week 0” value is on record as “four weeks”.

In the case of `O=C1Nc2ccc(Cl)cc2C(c2ccccc2Cl)=NC1O` (stereo not shown) [Lorazepam, lorazepam, reference compound], the “effect on immobility time” value in the test with Male Sprague Dawley rats (1 mg/kg p.o., negative control) was “no significant effect”.

Turning to `COc1ccc(C(CN(C)C)C2(O)CCCCC2)cc1` (stereo not shown) [Venlafaxine, venlafaxine], the “treatment time until increase in sucrose intake reached statistical significance vs Week 0” value with Male Wistar rats is recorded as “four weeks”. Besides, the “Immobility during 5 min: Week 5 Mean ± SD” value in test [1] (non-stressed) stood at 181.8 ± 27.6; in test [1] (stressed) it was 190.4 ± 36.8.

Regarding `CNCCC(Oc1ccc(C(F)(F)F)cc1)c1ccccc1` (stereo not shown) [fluoxetine, reference compound], the “loss of significant difference between dominant and submissive rats” value with submissive rats is recorded as “lost after third week of treatment”.

As usually defined, the ED50 is the dose at which the effect has come halfway, by size or by number of responders.
